Assay results published in US20220168403A1, “SUBCUTANEOUS TELOMERASE INHIBITOR COMPOSITIONS AND METHODS FOR USING SAME” (Geron Corporation, priority 2020, published 2022).

Assays:
[1] = system: template region of the RNA component of telomerase; conditions: background statement; cited from earlier work
[2] = Bioavailability of imetelstat sodium in rats via subcutaneous and intravenous routes (plasma LC/MS/MS, noncompartmental PK); assay type: in vivo, Sprague-Dawley rats
Experimental: 4 male, Sprague-Dawley rats (approximately 250 g-260 g) were dosed intravenously (IV volume 37.5 μL; 30 mg/kg) and 4 male, Sprague-Dawley rats (approximately 250 g-260 g) were dosed subcutaneously (SC volume 113 μL; 90 mg/kg) with imetelstat sodium. Imetelstat sodium is a 5′ palmitoylated 13-mer thiophosphoramidate oligonucleotide composed of the sequence 5′-TAGGGTTAGACAA-3′. Imetelstat sodium was dissolved in water immediately before dosing.
Blood was collected from each of the rats at time points of 0.083 hours (˜5 minutes), 0.25 hours (15 minutes), 1 hour, 2 hours, 4 hours, 8 hours and at 24 hours. A volume of […] of whole blood was collected, yielding about 700 μL to 1000 μL of plasma. Blood was collected through a secondary catheter in IV dosed rats (different from the one used for IV dosing).
Blood samples were collected in EDTA tubes and centrifuged immediately after collection. Collected plasma samples were transferred to a separate vial. Plasma concentration of imetelstat sodium was analyzed by LC/MS/MS.
The plasma concentrations of imetelstat sodium that were analyzed over a 24 hour period are depicted in FIG. 1. The plasma concentrations of imetelstat sodium were analyzed by a noncompartmental PK analysis. The subcutaneous (s.c.) bioavailability was calculated based on the following equation: F=(AUC(s.c.)/Dose(s.c.))/(AUC(i.v.)/Dose(i.v.))×100%.

[3] = system: patients with lower risk myelodysplastic syndrome; conditions: administered intravenously; cited from earlier work
[4] = Pre-study compatibility of imetelstat co-formulated with rHuPH20 (appearance, UV assay, water content, pH, RP-HPLC/UV); assay type: physicochemical
Experimental: The following formulations were prepared

[5] = system: patients with myelofibrosis; conditions: administered intravenously, correlated with reduction of mutation burden and cytogenetic abnormalities; cited from earlier work
[6] = system: cancer cell lines and human tumors; conditions: U.S. Pat. No. 7,494,982, cited from earlier work

## CCCCCCCCCCCCCCCC(=O)NCC(O)COP(=O)([S-])OC[C@H]1O[C@@H](n2cc(C)c(=O)[nH]c2=O)CC1NP(=O)([S-])OC[C@H]1O[C@@H](n2cnc3c(N)ncnc32)CC1NP(=O)([S-])OC[C@H]1O[C@@H](n2cnc3c(=O)[nH]c(N)nc32)CC1NP(=O)([S-])OC[C@H]1O[C@@H](n2cnc3c(=O)[nH]c(N)nc32)CC1NP(=O)([S-])OC[C@H]1O[C@@H](n2cnc3c(=O)[nH]c(N)nc32)CC1NP(=O)([S-])OC[C@H]1O[C@@H](n2cc(C)c(=O)[nH]c2=O)CC1NP(=O)([S-])OC[C@H]1O[C@@H](n2cc(C)c(=O)[nH]c2=O)CC1NP(=O)([S-])OC[C@H]1O[C@@H](n2cnc3c(N)ncnc32)CC1NP(=O)([S-])OC[C@H]1O[C@@H](n2cnc3c(=O)[nH]c(N)nc32)CC1NP(=O)([S-])OC[C@H]1O[C@@H](n2cnc3c(N)ncnc32)CC1NP(=O)([S-])OC[C@H]1O[C@@H](n2ccc(N)nc2=O)CC1NP(=O)([S-])OC[C@H]1O[C@@H](n2cnc3c(N)ncnc32)CC1NP(=O)([S-])OC[C@H]1O[C@@H](n2cnc3c(N)ncnc32)CC1N.[Na+].[Na+].[Na+].[Na+].[Na+].[Na+].[Na+].[Na+].[Na+].[Na+].[Na+].[Na+].[Na+] (stereo partly drawn) [imetelstat sodium, 5′ palmitoylated 13-mer thiophosphoramidate oligonucleotide composed of the sequence 5′-TAGGGTTAGACAA-3′]
[1]
  binding to the template region of the RNA component of telomerase: high affinity
[2]; SC 90 mg/kg vs IV 30 mg/kg, F=(AUC(s.c.)/Dose(s.c.))/(AUC(i.v.)/Dose(i.v.))×100%, 24 hour period
  calculated subcutaneous bioavailability (F): about 95.8%
[2]; repeated experiment
  calculated subcutaneous bioavailability (F): about 81.5%
[3]
  transfusion independence: able to achieve durable transfusion independence in certain patients
[4]; RRT 0.42
  Individual Impurities by RP-HPLC/UV: Unlipidated species: 0.26% Area
[4]; RRT 0.98
  Individual Impurities by RP-HPLC/UV: Pre-Peak: 0.35% Area
[4]; RRT 1.04
  Individual Impurities by RP-HPLC/UV: Post-Peak 1: 5.04% Area
[4]; RRT 1.08
  Individual Impurities by RP-HPLC/UV: Post-Peak 2: 0.53% Area
[4]; RRT 1.12 (Imetelstat Only), 1.09 (co-formulations)
  Individual Impurities by RP-HPLC/UV: Post-Peak 3: <0.2% Area
[4]; pre-study
  Assay by UV: 1033 µg/mg
  Water Content: 4.2%
  pH (1 mL, Plastic): 8.0
[4]; pre-study compatibility
  Purity by RP-HPLC/UV: 93.1%
  Total Impurities by RP-HPLC/UV: 6.9%
[4]; pre-study, Imetelstat Only = most current stability data of the drug substance lot
  Appearance of Reconstituted Solution: Clear solution,
[5]
  overall survival and bone marrow fibrosis: able to achieve improvement in overall survival and bone marrow fibrosis
[6]; background
  telomerase activity inhibition: inhibits telomerase activity
[6]; multitude of different cancer cell lines and human tumors
  effect on cell proliferation: effective against cell proliferation
